Results as given in the NIST ThermoML archive (doi:10.1021/acs.jced.7b00335).

Experiment: xn = mol fraction of the nth substance listed
Details: 100 kPa, Liquid; for viscosity: Concentric cylinders viscometry; for mass density: Vibrating tube method

O=Cc1ccccc1 [benzaldehyde] + CCC(C)O
Details | mass density [kg/m3] | viscosity [mPa·s]
293.15 K, x1 = 0.0813 | 824.7 | 3.08
293.15 K, x1 = 0.1623 | 842.8 | 2.62
293.15 K, x1 = 0.2401 | 860.9 | 2.3
293.15 K, x1 = 0.3517 | 886.9 | 1.97
293.15 K, x1 = 0.4404 | 908.4 | 1.791
293.15 K, x1 = 0.5612 | 938.1 | 1.648
293.15 K, x1 = 0.6519 | 961 | 1.576
293.15 K, x1 = 0.7423 | 984.4 | 1.528
293.15 K, x1 = 0.8511 | 1012.1 | 1.506
293.15 K, x1 = 0.94 | 1032.5 | 1.511
293.15 K, x1 = 1 | 1046.3 | 1.52
298.15 K, x1 = 0.0813 | 821.2 | 2.65
298.15 K, x1 = 0.1623 | 839.5 | 2.31
298.15 K, x1 = 0.2401 | 857.3 | 2.027
298.15 K, x1 = 0.3517 | 883.2 | 1.75
298.15 K, x1 = 0.4404 | 905.3 | 1.61
298.15 K, x1 = 0.5612 | 934.6 | 1.487
298.15 K, x1 = 0.6519 | 957.6 | 1.426
298.15 K, x1 = 0.7423 | 980.2 | 1.39
298.15 K, x1 = 0.8511 | 1007.3 | 1.38
298.15 K, x1 = 0.94 | 1028.6 | 1.39
298.15 K, x1 = 1 | 1041.7 | 1.41
303.15 K, x1 = 0.0813 | 816.3 | 2.23
303.15 K, x1 = 0.1623 | 834.1 | 1.984
303.15 K, x1 = 0.2401 | 852.4 | 1.78
303.15 K, x1 = 0.3517 | 878.1 | 1.561
303.15 K, x1 = 0.4404 | 899.7 | 1.438
303.15 K, x1 = 0.5612 | 929.2 | 1.322
303.15 K, x1 = 0.6519 | 952.1 | 1.279
303.15 K, x1 = 0.7423 | 975.7 | 1.255
303.15 K, x1 = 0.8511 | 1002.1 | 1.255
303.15 K, x1 = 0.94 | 1023.2 | 1.277
303.15 K, x1 = 1 | 1037.1 | 1.31
308.15 K, x1 = 0.0813 | 812.3 | 1.897
308.15 K, x1 = 0.1623 | 829.9 | 1.7
308.15 K, x1 = 0.2401 | 848.1 | 1.55
308.15 K, x1 = 0.3517 | 873.9 | 1.383
308.15 K, x1 = 0.4404 | 895.3 | 1.284
308.15 K, x1 = 0.5612 | 924.7 | 1.194
308.15 K, x1 = 0.6519 | 947.6 | 1.156
308.15 K, x1 = 0.7423 | 971.1 | 1.139
308.15 K, x1 = 0.8511 | 997 | 1.149
308.15 K, x1 = 0.94 | 1019 | 1.182
308.15 K, x1 = 1 | 1032.4 | 1.22
313.15 K, x1 = 0.0813 | 807.8 | 1.636
313.15 K, x1 = 0.1623 | 825.5 | 1.49
313.15 K, x1 = 0.2401 | 843.7 | 1.366
313.15 K, x1 = 0.3517 | 869.3 | 1.23
313.15 K, x1 = 0.4404 | 890.8 | 1.146
313.15 K, x1 = 0.5612 | 920.3 | 1.079
313.15 K, x1 = 0.6519 | 944.4 | 1.05
313.15 K, x1 = 0.7423 | 966.7 | 1.038
313.15 K, x1 = 0.8511 | 993.4 | 1.057
313.15 K, x1 = 0.94 | 1014.1 | 1.1
313.15 K, x1 = 1 | 1027.9 | 1.15
318.15 K, x1 = 0.0813 | 803 | 1.388
318.15 K, x1 = 0.1623 | 820.8 | 1.265
318.15 K, x1 = 0.2401 | 839 | 1.172
318.15 K, x1 = 0.3517 | 864.6 | 1.068
318.15 K, x1 = 0.4404 | 886.1 | 1.01
318.15 K, x1 = 0.5612 | 915.7 | 0.966
318.15 K, x1 = 0.6519 | 940 | 0.95
318.15 K, x1 = 0.7423 | 962.1 | 0.948
318.15 K, x1 = 0.8511 | 987.7 | 0.979
318.15 K, x1 = 0.94 | 1009.3 | 1.026
318.15 K, x1 = 1 | 1023.4 | 1.09
323.15 K, x1 = 0.0813 | 798.9 | 1.215
323.15 K, x1 = 0.1623 | 816.4 | 1.128
323.15 K, x1 = 0.2401 | 834.6 | 1.056
323.15 K, x1 = 0.3517 | 860 | 0.977
323.15 K, x1 = 0.4404 | 881.5 | 0.932
323.15 K, x1 = 0.5612 | 911 | 0.895
323.15 K, x1 = 0.6519 | 933.9 | 0.882
323.15 K, x1 = 0.7423 | 956 | 0.887
323.15 K, x1 = 0.8511 | 982.1 | 0.913
323.15 K, x1 = 0.94 | 1003.9 | 0.962
323.15 K, x1 = 1 | 1019.1 | 1.03

O=Cc1ccccc1 [benzaldehyde] + CCCC(C)O
Details | mass density [kg/m3] | viscosity [mPa·s]
293.15 K, x1 = 0.0809 | 825.2 | 3.3
293.15 K, x1 = 0.1662 | 841.4 | 2.75
293.15 K, x1 = 0.2441 | 858.3 | 2.36
293.15 K, x1 = 0.3552 | 882.5 | 1.95
293.15 K, x1 = 0.4418 | 903 | 1.757
293.15 K, x1 = 0.5664 | 933.2 | 1.62
293.15 K, x1 = 0.6565 | 956.4 | 1.568
293.15 K, x1 = 0.7447 | 980 | 1.537
293.15 K, x1 = 0.8528 | 1008.5 | 1.516
293.15 K, x1 = 0.9419 | 1031.8 | 1.51
293.15 K, x1 = 1 | 1046.3 | 1.52
298.15 K, x1 = 0.0809 | 821.1 | 2.775
298.15 K, x1 = 0.1662 | 837.2 | 2.35
298.15 K, x1 = 0.2441 | 854 | 2.05
298.15 K, x1 = 0.3552 | 878.2 | 1.731
298.15 K, x1 = 0.4418 | 898 | 1.584
298.15 K, x1 = 0.5664 | 928.2 | 1.458
298.15 K, x1 = 0.6565 | 951.2 | 1.416
298.15 K, x1 = 0.7447 | 975.4 | 1.395
298.15 K, x1 = 0.8528 | 1004.1 | 1.39
298.15 K, x1 = 0.9419 | 1027.4 | 1.395
298.15 K, x1 = 1 | 1041.7 | 1.41
303.15 K, x1 = 0.0809 | 817 | 2.4
303.15 K, x1 = 0.1662 | 833 | 2.06
303.15 K, x1 = 0.2441 | 849.7 | 1.809
303.15 K, x1 = 0.3552 | 873.9 | 1.55
303.15 K, x1 = 0.4418 | 894.4 | 1.411
303.15 K, x1 = 0.5664 | 923.8 | 1.301
303.15 K, x1 = 0.6565 | 946.9 | 1.259
303.15 K, x1 = 0.7447 | 971 | 1.25
303.15 K, x1 = 0.8528 | 1000 | 1.259
303.15 K, x1 = 0.9419 | 1023.1 | 1.28
303.15 K, x1 = 1 | 1037.1 | 1.31
308.15 K, x1 = 0.0809 | 812.9 | 2.035
308.15 K, x1 = 0.1662 | 828.8 | 1.78
308.15 K, x1 = 0.2441 | 845.5 | 1.584
308.15 K, x1 = 0.3552 | 869.6 | 1.369
308.15 K, x1 = 0.4418 | 890.3 | 1.25
308.15 K, x1 = 0.5664 | 919.3 | 1.159
308.15 K, x1 = 0.6565 | 942.3 | 1.128
308.15 K, x1 = 0.7447 | 966.5 | 1.117
308.15 K, x1 = 0.8528 | 995.5 | 1.138
308.15 K, x1 = 0.9419 | 1018 | 1.175
308.15 K, x1 = 1 | 1032.4 | 1.22
313.15 K, x1 = 0.0809 | 808.6 | 1.746
313.15 K, x1 = 0.1662 | 824.4 | 1.537
313.15 K, x1 = 0.2441 | 841.1 | 1.37
313.15 K, x1 = 0.3552 | 865.2 | 1.185
313.15 K, x1 = 0.4418 | 885.2 | 1.088
313.15 K, x1 = 0.5664 | 914.8 | 1.021
313.15 K, x1 = 0.6565 | 937.8 | 0.999
313.15 K, x1 = 0.7447 | 962 | 0.999
313.15 K, x1 = 0.8528 | 991.1 | 1.035
313.15 K, x1 = 0.9419 | 1013.9 | 1.088
313.15 K, x1 = 1 | 1027.9 | 1.15
318.15 K, x1 = 0.0809 | 804.2 | 1.46
318.15 K, x1 = 0.1662 | 820 | 1.291
318.15 K, x1 = 0.2441 | 836.7 | 1.167
318.15 K, x1 = 0.3552 | 860.8 | 1.032
318.15 K, x1 = 0.4418 | 881.4 | 0.963
318.15 K, x1 = 0.5664 | 910.4 | 0.9
318.15 K, x1 = 0.6565 | 933.4 | 0.881
318.15 K, x1 = 0.7447 | 957.4 | 0.884
318.15 K, x1 = 0.8528 | 986.6 | 0.932
318.15 K, x1 = 0.9419 | 1009.1 | 1.011
318.15 K, x1 = 1 | 1023.4 | 1.09
323.15 K, x1 = 0.0809 | 799.7 | 1.206
323.15 K, x1 = 0.1662 | 815.6 | 1.068
323.15 K, x1 = 0.2441 | 832.2 | 0.984
323.15 K, x1 = 0.3552 | 856.3 | 0.887
323.15 K, x1 = 0.4418 | 876.9 | 0.831
323.15 K, x1 = 0.5664 | 906.7 | 0.789
323.15 K, x1 = 0.6565 | 928.9 | 0.782
323.15 K, x1 = 0.7447 | 952.9 | 0.799
323.15 K, x1 = 0.8528 | 981.6 | 0.85
323.15 K, x1 = 0.9419 | 1004.5 | 0.941
323.15 K, x1 = 1 | 1019.1 | 1.03
